Laboratory results reported in patent publication US11285155B2, “Pharmaceutical combinations for treating cancer” (SUPPORT-VENTURE GMBH, priority 2016, dated 2022).
Counter-ions that a name gives are not always drawn.

How the values were obtained:
A549 tumor cells = assay: Antitumoral efficacy in subcutaneous xenograft A549 lung carcinoma model; format: in vivo, female athymic nude mice; conditions: necropsy day 46; pioglitazone HCl 10 mg/kg, pamapimod 100 mg/kg, alone or combined, p.o. once daily days 22-45
Description: Evaluation of the Antitumoral Efficacy of Pamapimod and Pioglitazone Hydrochloride Alone and in Combination in a Subcutaneous Xenograft A549 Lung Carcinoma Model in Female Athymic Nude Mice In Vivo The study consisted of 4 experimental groups, each containing 10 female athymic nude mice after randomization (for details, see Table 1 below). On day 0, 2×10^6 A549 tumor cells in 100 μl PBS:Matrigel (1:1) were subcutaneously implanted into the left flank of all participating female athymic nude mice. In the following, primary tumor sizes were measured two times weekly (Monday and Friday) by calipering. […] For block randomization, a robust automated random number generation within individual blocks was used (MS-Excel 2003). On the following day (day 22), treatment was initiated in all groups (see Table 1 for details). Pioglitazone HCL (10 mg/kg) and pamapimod (100 mg/kg) were administered both alone (Groups 2 and 3, respectively) and in combination (Group 4) once daily p.o. on days 22-45. Animals of Group 1 were treated with 10 ml/kg Vehicle Control (0.9% NaCl, 0.5% Methyl Cellulose, 0.4% polysorbate 80, 0.9% benzyl alcohol, pH 4.8) once daily p.o. for the same time period. The study was terminated on day 46. All animals were sacrificed and necropsy was performed. Primary tumors were collected and wet weights and volumes determined. On day 0, 2×10^6 A549 tumor cells in 100 μl PBS:Matrigel (1:1) were subcutaneously implanted into the left flank of 54 female athymic nude mice. In the following, animal weights were measured three times weekly (Monday, Wednesday and Friday; balance: Mettler Toledo PB602-L). Primary tumor sizes were measured twice weekly by calipering (manual caliper, OMC Fontana). Tumor sizes were calculated according to the formula W^2×L/2 (L=length and W=the perpendicular width of the tumor, L>W). […] For block randomization, a robust automated random number generation within individual blocks was used (MS-Excel 2003). On the following day (day 22), treatment was initiated in all groups (see Table 1 for details). At necropsy, animals were weighed and killed by cervical dislocation. Primary tumors were collected and wet weights and volumes determined. Primary tumor volumes were analyzed using descriptive data analysis (Mean, SEM, Median and interquartile range). Statistical analysis of efficacy data was done using the Mann Whitney test and the unpaired t-test (in parentheses). All data analysis was performed using GraphPad Prism 5 from GraphPad Software, Inc., San Diego, USA.

CT26 wt_LLN cells = assay: Antitumoral efficacy in orthotopic syngeneic CT26 wt colon carcinoma model; format: in vivo, female BALB/c mice; conditions: necropsy day 20, pioglitazone HCl 25 mg/kg, pamapimod 100 mg/kg, p.o. once daily days 3-20; for antitumoral efficacy, primary tumor volume vs vehicle control / antitumoral efficacy, primary tumor weight vs vehicle control: alone or combined; for number of animals with metastases: of 12 animals per group, vehicle group six
Description: Evaluation of the Antitumoral Efficacy of Pamapimod and Pioglitazone Hydrochloride Alone and in Combination in an Orthotopic Syngeneic CT26 wt Colon Carcinoma Model in Female BALB/c Mice In Vivo The study consisted of 4 experimental groups, each containing 12 female BALB/c mice after randomization (for details, see Table 1 below). On day 0, 0.5×10^5 CT26 wt_LLN cells suspended in 15 μl PBS:Matrigel (1:2) were orthotopically implanted into the caecum of all participating animals. In the following period, primary tumor growth was monitored once weekly on days 2, 9, 15 and 20 using in vivo bioluminescence imaging. On day 2, 48 animals were randomized into 4 groups of 12 animals each according to the current in vivo bioluminescence imaging results (block of four after ranking). For block randomization, a robust automated random number generation within individual blocks was used (MS-Excel 2016). Thereby, detected luciferase signals served as randomization criteria. On the following day (day 3), treatment was initiated in all groups (see Table 1 for details). All treatments were performed at 10 ml/kg 1× daily p.o. on days 3-20. Pioglitazone HCL (25 mg/kg) and pamapimod (100 mg/kg) were administered both alone (Groups 2 and 3, respectively) and in combination (Group 4) once daily p.o. Animals of Group 1 were treated with 10 ml/kg Vehicle Control (0.9% NaCl, 0.5% Methyl Cellulose, 0.4% polysorbate 80, 0.9% benzyl alcohol, pH 4.8) once daily p.o. On day 20, the study was terminated due to tumor burden All animals were sacrificed and a necropsy performed. Primary tumors were collected and wet weights and volumes determined. On day 0, prior to surgery, and 24 h after surgery, all animals received the analgetic Meloxicam (Metacam®; 1 mg/kg) via subcutaneous injection. […] Thereby, cells were carefully injected in between caecum and mesentery. After the caecum had been repositioned, the skin was closed with wound clips. In the following, animal weights were measured three times weekly (Monday, Wednesday and Friday; balance: Mettler Toledo PB602-L). Primary tumor growth was monitored once weekly on days 2, 9, 15 and 20 using in vivo bioluminescence imaging. On day 2, 48 animals were randomized into 4 groups of 12 animals each according to the current in vivo bioluminescence imaging results (block of four after ranking). For block randomization, a robust automated random number generation within individual blocks was used (MS-Excel 2016). Thereby, detected luciferase signals served as randomization criteria. On the following day (day 3), treatment was initiated in all groups (see Table 2 for details). During the course of the study, tumor growth was monitored once weekly on days 2, 9, 15 and 20 using in vivo bioluminescence imaging. For this purpose, 150 mg/kg D-Luciferin were injected intraperitoneally (i.p.) into the mice 7 min before anesthetization. Light emission was measured 10 min post injection with a CCD-camera for 1-5 min using a NightOWL LB 981 bioluminescence imaging system (Berthold Technologies, Germany). On day 20, animals were killed by cervical dislocation. Primary tumors were collected, wet weights and volumes determined. Primary tumor volumes were analyzed using descriptive data analysis (Mean, SEM, Median and interquartile range). Statistical analysis of efficacy data was done using the Mann Whitney test and the unpaired t-test (in parentheses). All data analysis was performed using GraphPad Prism 5 from GraphPad Software, Inc., San Diego, USA.

Compound	primary tumor volume vs vehicle control (A549 tumor cells)	primary tumor weight vs vehicle control (A549 tumor cells)	antitumoral efficacy, primary tumor volume vs vehicle control (CT26 wt_LLN cells)	antitumoral efficacy, primary tumor weight vs vehicle control (CT26 wt_LLN cells)	number of animals with metastases (CT26 wt_LLN cells)
Cn1c(=O)c(Oc2ccc(F)cc2F)cc2cnc(NC(CCO)CCO)nc21 [pamapimod, 6-(2,4-Difluorophenoxy)-2-[3-hydroxy-1-(2-hydroxyethyl)-propylamino]-8-methyl-8H-pyrido[2,3-d]pyrimidin-7-one]	noticeable decrease in both tumor volumes and tumor weights which was significant for tumor volume	nearly significant for tumor weight	significant in case of primary tumor volumes	just beyond significance in case of primary tumor weights	2 animals
CCc1ccc(CCOc2ccc(CC3SC(=O)NC3=O)cc2)nc1 (stereo not shown) [pioglitazone HCl, pioglitazone hydrochloride]	noticeable reduction in both tumor volumes and tumor weights compared to control which approached statistical significance	noticeable reduction in both tumor volumes and tumor weights compared to control which approached statistical significance	no antitumoral efficacy	no antitumoral efficacy	four
